Where only a bound is given, the exact number is not on record here.

This assay relates to EV71 virus strain Shenzhen/120F1/09. The assay is described as follows: EV71 in-vitro cytopathic effect (CPE) test. Type of assay: cell-based, RD cells of human rhabdomyoma. The conditions noted are these: Enterovirus A, 72 h; RD cells, EV71 100 TCID50, 3 days, CCK8 readout; read-out: EC50 by EC71 CPE test, EV71. The method, then:
Test of EV71 In-Vitro Cytopathic Effect (CPE) To test the in-vitro antiviral activity and cytotoxicity of a compound to HFMD virus EV71 by means of cytopathic effect (CPE) test. […] Cell line: RD cells of human rhabdomyoma • 3. Cell culture media: DMEM medium added with 10% serum, Penicillin/Streptomycin and L-[…]×) • 4. […] Cell inoculation: digest off the RD cells from the attached state, then dilute them with culture medium to a density of 80000/ml and inoculate 100 μl into the micro wells the 96-well plate. • 2. Dilution of compound: • Step 1: prepare the dry powder of a compound to test into a 10 mM solution in DMSO. Then dilute the compound by three times to eight concentration points. Dilute the reference compounds with the same method. • Step 2: further dilute the diluted solution of the compound in DMSO with cell culture medium. Add 10 μl DMSO solution for each well into 240 μl culture medium. • 3. Add the diluted compound solution by 50 μl each well into the 96-well plate inoculated with cells (double holes, final concentration of DMSO is 1%). • 4. Dilution of virus: dilute EV71 virus solution by 10000 times to a concentration of 100 TCID50/50 μl/. Add the diluted virus solution by 50 μl each well into the 96-well plate. Prepare another 96-well plate to replace the virus with culture medium and similarly inoculate the cells. Add the compound to test the toxicity of compound on cells. • 5. Cultivate the 96-well plate 3 days at the conditions of 37° C. and 5% CO2. • 6. EC50 and CC50 tests: add the cellular activity test reagent CCK8 into the micro-wells by 20 μl/well. Use ELIASA to read the absorbancy at the wavelength of 450 nm and 630 nm. • 7.
In general terms: Cytopathic effects are the visible damage that an infection or toxin causes in cultured cells.

As to `O=S1(=O)N(CCOCCOc2ccc(-c3ccc(Cl)cc3)cc2)CCN1c1ccncc1` [Embodiment 13, 2-(2-(2-((4′-chloro-[1,1′-biphenyl]-4-yl)oxy)ethoxy)ethyl)-5-(pyridin-4-yl)-1,2,5-thiadiazolidine-1,1-dioxide], the EC50 (usually the concentration needed to bring the measured effect to its halfway point) was 100 to 500 nM.

For the molecule `Cc1nc(-c2ccc(OCCCCCN3CCN(c4ccnc(N)c4)S3(=O)=O)cc2)no1` [Embodiment 69], the EC50 is less than 50 nM.

As to `CCO/N=C/c1ccc(OCCCCCN2CCN(c3ccnc(N4CCC4)c3)S2(=O)=O)cc1` [Embodiment 42, (E)-4-((5-(5-(2-(azetidin-1-yl)-pyridin-4-yl)-1,1-dioxide-1,2,5-thiadiazolidine-2-yl)-pentyl)-oxy)-benzaldehyde-O-ethyl ketoxime], the EC50 was 100 to 500 nM.

As for `CCn1nnc(-c2ccc(OCCCCCN3CCN(c4ccnc(N)c4)S3(=O)=O)nc2)n1` [Embodiment 74, 4-(5-(5-((5-(2-ethyl-tetrazol-5-yl)-2-pyridinyl)-oxy)-pentyl)-1,1-dioxo-1,2,5-thiadiazolidine-2-yl)-pyridin-2-amine], the EC50 was less than 50 nM.

As to `CC(C)O/N=C/c1ccc(OCCCCCN2CCN(c3ccnc(N)c3)S2(=O)=O)cc1` [Embodiment 53, (E)-4-((5-(5-(2-amino-pyridin-4-yl)-1,1-dioxide-1,2,5-thiadiazolidine-2-yl)-pentyl)-oxy)-benzaldehyde-O-isopropyl oxime], the EC50 was less than 50 nM.

Consider `CCc1nnc(-c2ccc(OCCCCCN3CCN(c4ccnc(N)c4)S3(=O)=O)cc2)o1` [Embodiment 63, 4-(5-(5-(4-(5-ethyl-1,3,4-oxadiazol-2-yl)-phenoxy)-pentyl)-1,1-dioxo-1,2,5-thiadiazolidine-2-yl)-pyridin-2-amine], for which the EC50 lay in the range of 100 to 500 nM.

For the molecule `CCO/N=C/c1ccc(OCCCCCN2CCN(c3ccnc(NC)c3)S2(=O)=O)cc1` [Embodiment 41, (E)-4-((5-(5-(2-(methylamino)-pyridin-4-yl)-1,1-dioxide-1,2,5-thiadiazolidine-2-yl)-pentyl)-oxy)-benzaldehyde-O-ethyl ketoxime], the EC50 was less than 50 nM.

Turning to `CCO/N=C1\CCc2cc(OCCCCCN3CCN(c4ccsc4)S3(=O)=O)ccc21` [Embodiment 46, (E)-2-(5-((1-(ethoxy-imino)-2,3-dihydro-1H-inden-5-yl)-oxy)-pentyl)-5-(thiophen-3-yl)-1,2,5-thiadiazolidine-1,1-dioxide], the EC50 lay in the range of 100 to 500 nM.

For the molecule `CCn1ncc(-c2ccc(OCCCCCN3CCN(c4ccnc(N)c4)S3(=O)=O)cc2)n1` [Embodiment 64, 2-(2-amino-pyridin-4-yl)-5-(5-(4-(2-ethyl-2H-1,2,3-triazol-4-yl)-phenoxy)-pentyl)-1,2,5-thiadiazolidine-1,1-dioxide], the EC50 was less than 50 nM.

`CCO/N=C1\CCc2cc(OCCCCCN3CCN(c4ccnc(N)c4F)S3(=O)=O)ccc21` [Embodiment 48, (E)-2-(2-amino-3-fluoropyridin-4-yl)-5-(5-((1-(ethoxy-imino)-2,3-dihydro-1H-indene-5-yl)-oxy)-pentyl)-1,2,5-thiadiazolidine-1,1-dioxide]: the EC50 lay in the range of 100 to 500 nM.

`CCn1nnc(-c2ccc(OCCC(C)(C)CCN3CCN(c4ccnc(N)c4)S3(=O)=O)cc2)n1` [Embodiment 76, 4-(5-(5-(4-(2-ethyl-tetrazol-5-yl)-phenoxy)-3,3-dimethyl-pentyl)-1,1-dioxo-1,2,5-thiadiazolidine-2-yl)-pyridin-2-amine]: the EC50 is less than 50 nM.

With `CCO/N=C1\CCc2cc(OCCCCCN3CCN(c4cc(N)ncc4F)S3(=O)=O)ccc21` [Embodiment 49, (E)-2-(2-amino-5-fluoro-pyridin-4-yl)-5-(5-((1-(ethoxy-imino)-2,3-dihydro-1H-indene-5-yl)-oxy)-pentyl)-1,2,5-thiadiazolidine-1,1-dioxide], the EC50 fell in the range of 100 to 500 nM.

As for `CCO/N=C1\CCc2cc(OCCC(C)(C)CCN3CCN(c4ccnc(N)c4)S3(=O)=O)ccc21` [Embodiment 30, (E)-2-(2-amino-pyridin-4-yl)-5-(5-((1-(ethoxy-imino)-2,3-dihydro-1H-inden-5-yl)-oxy)-3,3-dimethylpentyl)-1,2,5-thiadiazolidine-1,1-dioxide], the EC50 was less than 50 nM.

Consider `CCn1nnc(-c2ccc(OCCC3(CCN4CCN(c5ccnc(N)c5)S4(=O)=O)CC3)cc2)n1` [Embodiment 73, 2-(2-amino-pyridin-4-yl)-5-(2-(1-(2-(4-(2-ethyl-2H-tetrazol-5-yl)-phenoxy)-ethyl)-cyclic propyl)-ethyl)-1,2,5-thiadiazolidine-1,1-dioxide], for which the EC50 was less than 50 nM.

For the molecule `CCO/N=C1\CCc2cc(OCCCCCN3CCN(c4ccc(N)nc4)S3(=O)=O)ccc21` [Embodiment 47], the EC50 is 500 to 1000 nM.

Turning to `CC(C)n1nnc(-c2ccc(OCCCCCN3CCN(c4ccnc(N)c4)S3(=O)=O)cc2)n1` [Embodiment 60], the EC50 was less than 50 nM.

Take `CCO/N=C/c1ccc(OCCCCCN2CCN(c3ccc(Cl)nn3)S2(=O)=O)cc1` [Embodiment 34, (E)-4-((5-(5-(6-chloro-pyridazin-3-yl)-1,1-dioxide-1,2,5-thiadiazolidine-2-yl)-pentyl)-oxy)-benzaldehyde-O-ethyl ketoxime]: the EC50 was 500 to 1000 nM.

On to `CCn1nnc(-c2ccc(OCCCCCN3CCN(c4ccncc4)S3(=O)=O)cc2)n1` [Embodiment 11, 2-(5-(4-(2-ethyl-2H-tetrazol-5-yl)-phenoxy)pentyl)-5-(pyridin-4-yl)-1,2,5-thiadiazolidine-1,1-dioxide], for which the EC50 was 50 to 100 nM.

Consider `CCc1cc(-c2ccc(OCCCCCN3CCN(c4ccnc(N)c4)S3(=O)=O)cc2)no1` [Embodiment 67, 2-(2-amino-pyridin-4-yl)-5-(5-(4-(5-ethylisoxazole-3-yl)-phenoxy)-pentyl)-1,2,5-thiadiazolidine-1,1-dioxide], for which the concentration giving a half-maximal response (EC50) is less than 50 nM.

`Cn1nnc(-c2ccc(OCCCCCN3CCN(c4ccnc(N)c4)S3(=O)=O)cc2)n1` [Embodiment 61, 2-(2-amino-pyridin-4-yl)-5-(5-(4-(2-methyl-2H-tetrazol-5-yl)-phenoxy)-pentyl)-1,2,5-thiadiazolidine-1,1-dioxide]: the EC50 is less than 50 nM.

On to `CCO/N=C(\CC)c1ccc(OCCCCCN2CCN(c3ccnc(N)c3)S2(=O)=O)cc1` [Embodiment 54, (E)-2-(2-amino-pyridin-4-yl)-5-(5-(4-(1-(ethoxyimino)-propyl)-phenoxy)-pentyl)-1,2,5-thiadiazolidine-1,1-dioxide], for which the EC50 lay in the range of 500 to 1000 nM.

On to `CCO/N=C/c1ccc(OCCOCCN2CCN(c3ccnc(N)c3)S2(=O)=O)cc1` [Embodiment 55], for which the EC50 is 100 to 500 nM.

Take `CCO/N=C/c1ccc(OCCC(C)CCN2CCN(c3ccnc(N)c3)S2(=O)=O)cc1` (stereo not shown) [Embodiment 17, (E)-4-((5-(5-(2-amino-pyridin-4-yl)-1,1-dioxo-1,2,5-thiadiazolidine-2-yl)-3-methyl-pentyl)-oxy)-benzaldehyde-O-ethylketoxime]: the EC50 was less than 50 nM.

Take `CCO/N=C/c1ccc(OCCCCCN2CCN(c3ccnc(N)c3)S2(=O)=O)cn1` [Embodiment 56, (E)-5-((5-(5-(2-amino-pyridin-4-yl)-1,1-dioxide-1,2,5-thiadiazolidine-2-yl)-pentyl)-oxy)-picolinaldehyde-O-ethyl ketoxime]: the EC50 was 50 to 100 nM.

As to `CCO/N=C1\CCc2cc(OCCCCCN3CCN(c4ccncc4)S3(=O)=O)ccc21` [Embodiment 8], the EC50 fell in the range of 50 to 100 nM.

The values above are taken from patent US9988361B2, “Anti-enterovirus 71 thiadiazolidine derivative” (JIANGSU KANION PHARMACEUTICAL CO. LTD, priority 2014, dated 2018).
